Assay [1] addresses AChE (Electrophorus electricus) (Electrophorus electricus, UniProt O42275). The experiment in a line: Acetylcholinesterase inhibition (Ellman's method). It counts as biochemical. The note with it: for inhibition at 10 µM: 10 μM compound, read-out: % Inhibition of EeAChE at 10 μM. As for the experimental part:
Ellman’s method was employed to determine the inhibitory capacity of the compounds against AChE (Electrophorus electricus). The compounds were studied at 10 μM concentration, at room temperature, using PBS (0.1 M, pH 8) as solvent. Transparent 48-well microplates (COSTAR 3548) were used and, in each one, a blank was included. The compounds were incubated with the enzyme (0.09 U/mL) and with DTNB (0.35 mM) for 10 min. Afterwards, the enzyme substrate acetylthiocholine (0.35 mM) was added to a final volume of 1 mL. The microplate was incubated at room temperature for 15 min. Then, the absorbance was measured at 420 nm using the microplate reader FluoStar Optima (BMG Labtech, Ortenberg, Baden-Württemberg, Germany). The enzymatic activity was calculated by subtracting the blank absorbance from the sample absorbance and dividing the result by the absorbance of the maximum activity subtracted from blank absorbance, and the result was multiplied by one hundred to give a percentage. The inhibitory activity was calculated by subtracting the enzymatic activity from one hundred. Selected compounds were assayed at 0.3, 1, 3, 10, and 30 μM concentrations to obtain inhibition curves. The results were plotted versus concentration to obtain IC50 values through sigmoidal non-lineal adjustment. All the experiments were performed at least in triplicate.
Bisavenanthramide B-6 and heliotropamide A have been identified as acetylcholinesterase inhibitors. This precedent, coupled with our interest in the potential characterization of our compounds as multitarget-directed ligands, led us to investigate them as inhibitors of this enzyme, an important anti-Alzheimer target.
A general note: In Ellman's method for cholinesterases, released thiocholine reacts with DTNB.

Assay [2] is described as follows: Ferric reducing antioxidant power (FRAP) assay. Conditions: for FRAP nmol Fe2+ at 30 µM: 30 µM compound, n in brackets; for FRAP TEAC: 30 µM, relative to trolox. Set-up: key to FRAP TEAC: trolox equivalents (TEAC), relative to trolox. On the procedure:
A ferric reducing antioxidant power (FRAP) kit assay purchased from Sigma-Aldrich (Madrid, Spain) was employed for the experiments. The antioxidant solutions, FRAP assay buffer solution, FeCl3 solution, and FRAP probe solution were kept in ice during the preparation of the plate. A calibration standard curve was prepared by using the 2 mM ferrous standard solution provided in the FRAP kit assay. Appropriate aliquots of this solution were taken and diluted up to a 200 μL final volume with FRAP buffer. The final ferrous concentrations measured in the well were: 0, 20, 40, 60, 80, and 100 μM. Each concentration value was prepared and measured by triplicate. Stock solutions of compounds 3, as well as reference compounds trolox and ferulic acid, were freshly prepared in 95% ethanol at […]. Aliquots of 10 μL of compounds 3 and the reference compounds were mixed with 19 μL FeCl3 solution and 19 μL FRAP probe solution, and then completed to a final volume of 200 μL with FRAP assay buffer solution. The final concentration of antioxidants and references was 30 μM. Compounds 3, reference compounds, as well as the corresponding blank solutions (one for each compound to be assayed, avoiding the chromogenic FRAP probe), and positive control were thoroughly mixed in vortex for 1–2 min with the reaction chromogenic media, and then were incubated under darkness at 37 °C in the dry bath, and using the device for support well-plates. Each compound to be assayed and the reference antioxidant compounds were prepared and measured by triplicate. The absorbance values were measured at 594 nm after 5 min of reaction and, to assure complete reaction, the absorbance values after 60 min of incubation at 37 °C in the dry bath were also measured. The absorbance values of the sample antioxidant compounds were corrected by subtracting the corresponding absorbance values of the blanks, and then they were introduced in the calibration curve and the ferrous equivalents were determined. The reference antioxidants employed for this assay were trolox and ferulic acid, which were obtained from Sigma-Aldrich (Madrid, Spain). Ultrapure water was obtained from a Milli-Q Direct 8 system (Millipore, Molsheim, France).
In order to achieve a broader insight into the antioxidant profile of our compounds, we also examined them using a single electron transfer (SET)-based method, namely the ferric reducing antioxidant power (FRAP) assay, which measures the ability of an antioxidant to reduce the ferric ion in the TPTZ (2,4,6-tri(2-pyridyl)-1,3,5-triazine)-Fe(III) complex.

The subject of assay [3] is SH-SY5Y cells. The experiment in a line: Neuroprotection against okadaic acid in SH-SY5Y cells (MTT). It counts as cell-based. The note with it: Homo sapiens, SH-SY5Y, 18 h; 1 µM compound; okadaic acid 20 nM; read-out: % Neuroprotection ± SEM at 1 µM (okadaic acid). On the procedure: Neuroprotection studies against tau hyperphosphorylation exerted by okadaic acid (OA) were evaluated using the SH-SY5Y cell line as follows. […] After 18 h, cell viability was addressed by the MTT reduction method. MTT (5 mg/mL, 10 μL/well) was added and incubated for 2 h. Then, the medium was removed and the purple formazan crystals formed by viable cells were dissolved using 100 μL of DMSO. A FluoStar Optima spectrophotometer (BMG Labtech, Ortenberg, Baden-Württemberg, Germany) was used to measure the absorbance at 570 nm.
Okadaic acid is a potent inhibitor of protein phosphatase 2A (PP2A), thereby inducing tau hyperphosphorylation. For this reason, it can be employed as a model of neurodegenerative-disease-connected tau hyperphosphorylation, a well-known feature of Alzheimer’s disease, but present also in other NDDs, collectively known as tauopathies and characterized by the pathological aggregation of hyperphosphorylated tau in neurofibrillary tangles. […] Tau hyperphosphorylation is connected to oxidative stress, which activates p38 and deactivates calcineurin, a phosphatase involved in tau dephosphorylation by increasing RCAN1, its natural repressor [34, 35]. Indeed, hyperphosphorylation and oxidative stress have been proposed to generate a vicious circle that is critical to the advance of neurodegenerative tauopathies.

The inhibition is the drop in the measured response relative to a control, in per cent. By IC50 is commonly meant the concentration that gives 50% inhibition.

Chain of AChE (Electrophorus electricus) (O42275 24-633): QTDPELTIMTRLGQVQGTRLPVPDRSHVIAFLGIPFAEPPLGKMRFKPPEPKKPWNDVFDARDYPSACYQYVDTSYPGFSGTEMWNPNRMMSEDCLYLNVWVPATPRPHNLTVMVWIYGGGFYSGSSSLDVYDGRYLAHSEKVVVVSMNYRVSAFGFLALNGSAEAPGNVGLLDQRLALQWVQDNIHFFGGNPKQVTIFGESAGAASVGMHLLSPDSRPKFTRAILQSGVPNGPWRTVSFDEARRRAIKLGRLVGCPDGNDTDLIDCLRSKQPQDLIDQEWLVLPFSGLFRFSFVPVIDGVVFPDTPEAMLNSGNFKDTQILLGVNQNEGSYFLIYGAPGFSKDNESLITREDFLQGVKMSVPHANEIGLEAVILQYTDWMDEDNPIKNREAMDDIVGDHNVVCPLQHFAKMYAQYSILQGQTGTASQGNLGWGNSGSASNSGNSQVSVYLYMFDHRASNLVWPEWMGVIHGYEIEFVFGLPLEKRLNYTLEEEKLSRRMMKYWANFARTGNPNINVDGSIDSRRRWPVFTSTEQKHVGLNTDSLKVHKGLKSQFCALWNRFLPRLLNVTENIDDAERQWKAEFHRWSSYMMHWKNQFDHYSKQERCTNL

For `COC(=O)C1=C(C)N(CCc2ccc(OC)c(OC)c2)C(=O)/C1=C\c1ccc(OCc2ccc(Cl)cc2)c(OC)c1` [Compound 3m, Methyl (Z)-4-[4-((4-Chlorobenzyl)oxy)-3-methoxybenzylidene]-1-(3,4-dimethoxyphenethyl)-2-methyl-5-oxo-4,5-dihydro-1H-pyrrole-3-carboxylate], in assay [1], the inhibition at 10 µM amounted to 31.8%. In assay [2], the “FRAP nmol Fe2+ at 30 µM” value was 1.59 ± 0.05 (3) nmol Fe^2+ and the “FRAP TEAC” value is reported as 0.70. Besides, the % neuroprotection against okadaic acid at 1 µM in assay [3] was 40.7 ± 9.85%.
Turning to `COC(=O)C1=C(C)N(CCc2ccc(OC)c(OC)c2)C(=O)/C1=C\c1ccc(OCc2ccccc2Cl)c(OC)c1` [Compound 3n, Methyl (Z)-4-[4-((2-Chlorobenzyl)oxy)-3-methoxybenzylidene]-1-(3,4-dimethoxyphenethyl)-2-methyl-5-oxo-4,5-dihydro-1H-pyrrole-3-carboxylate], the inhibition at 10 µM in assay [1] was determined as 17.6%. Further, in assay [2], the “FRAP nmol Fe2+ at 30 µM” value was 1.59 ± 0.02 (3) nmol Fe^2+ and the “FRAP TEAC” value turned out to be 0.69. Besides, the % neuroprotection against okadaic acid at 1 µM in assay [3] stood at 61.4 ± 15.8%.
On to `COC(=O)C1=C(C)N(CCc2ccccc2)C(=O)/C1=C\c1c[nH]c2ccccc12` [Compound 3o, Methyl (Z)-4-((1H-Indol-3-yl)methylene)-2-methyl-5-oxo-1-phenethyl-4,5-dihydro-1H-pyrrole-3-carboxylate], for which the inhibition at 10 µM in assay [1] stood at 39.8%. For the same compound, the IC50 in assay [1] (n in brackets, read-out: IC50 (EeAChE)) was 12.5 ± 1.4 µM. Also, in assay [2], the “FRAP nmol Fe2+ at 30 µM” value was 1.80 ± 0.07 (3) nmol Fe^2+ and the “FRAP TEAC” value amounted to 0.79. Further, the % neuroprotection against okadaic acid at 1 µM in assay [3] was 46.3 ± 13.6%.

For the origin of these results see paper PMC8230565, “Bisavenathramide Analogues as Nrf2 Inductors and Neuroprotectors in In Vitro Models of Oxidative Stress and Hyperphosphorylation” (Antioxidants, 2021).
